Experimental data from publication PMC10761396, “Evaluation of new alternative methods for the identification of estrogenic, androgenic and steroidogenic effects: a comparative in vitro/in silico study” (Archives of Toxicology, 2023).
Read-outs that look alike come from different tables or passages of the source.

Assays:
[1] = system: aromatase; parameters: method as in US EPA ToxCast; settings: ref US EPA ToxCast; cited from earlier work
[2] = system: ER; parameters: method as in US EPA ToxCast; settings: ref US EPA ToxCast, cited from earlier work; for ToxCast 1: (Comments), efficacy: borderline: less than 50% efficacy; for ToxCast 1: (Active assays), ER assay listed as active: each listed assay name = active-flagged assay
[3] = system: human (non-selective) ER; test: ER radioligand ([3H]estradiol) receptor-binding assay
Experimental: The chemicals were tested for their ability to bind to different targets. […] Chemicals were incubated at 10 µM with cells overexpressing ER or AR for 24 h at 4°C, after which, the binding of the radiolabeled ligand ([^3H]estradiol for ER and [^3H]methyltrienolone for AR) was measured by liquid scintillation counting. An increase or decrease higher than 50% were considered to represent significant effects. Four chemicals were tested in additional incubations at several concentrations up to the maximum soluble concentration for IC50 or EC50 determination for the associated target. Receptor binding was calculated as a % inhibition of the binding of a radioactively labeled ligand specific for each target.
Each test chemical was tested in a single assay in duplicate.

[4] = target: T1, ERα (Homo sapiens, UniProt P03372); test: (anti-)ERα CALUX receptor transactivation assay; format: cell-based; parameters: expressed in transfected cells; host or cells: CALUX cells (U2-OS is named only for the cytotoxicity CALUX)
T1 sequence (P03372 1-595): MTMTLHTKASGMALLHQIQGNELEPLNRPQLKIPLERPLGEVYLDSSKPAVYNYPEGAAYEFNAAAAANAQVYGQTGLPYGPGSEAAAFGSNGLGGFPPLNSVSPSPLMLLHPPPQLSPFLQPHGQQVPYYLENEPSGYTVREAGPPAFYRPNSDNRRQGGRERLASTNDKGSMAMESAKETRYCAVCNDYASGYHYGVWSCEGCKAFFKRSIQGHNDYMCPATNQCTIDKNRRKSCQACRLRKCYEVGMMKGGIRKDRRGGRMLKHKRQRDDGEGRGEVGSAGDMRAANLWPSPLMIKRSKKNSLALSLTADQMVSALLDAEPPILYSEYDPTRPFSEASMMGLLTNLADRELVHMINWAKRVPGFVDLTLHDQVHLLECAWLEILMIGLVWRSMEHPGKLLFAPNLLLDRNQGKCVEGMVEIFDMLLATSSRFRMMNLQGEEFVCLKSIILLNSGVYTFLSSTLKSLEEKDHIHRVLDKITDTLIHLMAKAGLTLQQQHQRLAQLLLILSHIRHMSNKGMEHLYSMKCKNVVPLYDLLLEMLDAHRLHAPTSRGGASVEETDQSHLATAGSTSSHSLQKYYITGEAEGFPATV
Experimental: The human CALUX® assays were used to measure the impact of test compounds on estrogen and androgen pathways. […] Chemicals can activate (or inactivate, in the case of an antagonistic activity) a ligand-specific pathway by binding to the receptor (ER, AR), after which the receptor-ligand complex binds to specific DNA REs […], resulting in increased (or decreased) cellular expression of a marker protein (e.g., luciferase).
Chemicals were dissolved and diluted in DMSO. […] The cytotoxicity of each test chemical was assessed using the U2-OS based cytotoxicity CALUX bioassay. Concentrations causing >20% reduction of luminescence were considered cytotoxic. […] Luciferase production was quantified by measuring luminescence following addition of luciferin. For antagonist assays, a fixed concentration of receptor agonist was co-incubated with a range of concentrations of the test chemical. […] For the AR assays, dihydrotestosterone was the positive control for agonistic effects and flutamide was the positive control for antagonist effects.
Each test chemical was tested in triplicates in two independent experiments.

[5] = system: ER; test: ToxCast ER assays and final ToxCast call; settings: for Final "true" call (ToxCast) ER: from active ToxCast assays, cytotoxicity, ToxCast Pathway Model and CERAPP Potency Level; for ToxCast result (ER): overall call from ToxCast data (Supplementary Table 2)
Source text: (§1) A rich source of data can be found in the EPA's ToxCast database (US EPA). This contains ED data for ~ 1800 chemicals in more than 700 high-throughput assay endpoints that cover a range of high-level cell responses. The US EPA is running an Endocrine Disruption Screening Program (EDSP), with the aim of prioritising chemicals using high-throughput screening methods and computational toxicology approaches to evaluate thousands of chemicals for ED activities. The OECD framework for ED assessment (OECD [2018]) requires animal testing at higher levels, where relevant in vitro alternatives are missing e.g. for developmental, reproductive, neurological and immune effects. However, such follow-up testing is not possible for the cosmetics industry especially in the EU due to the complete animal testing ban which came into force in March 2013 (EU [2009]). Even for other industries, animal models are not suitable for assessing ED effects due to issues relating to ethics, capacity, speed and relevance (Patisaul et al. [2018]). Therefore, chemicals which cannot be evaluated using in vivo method must be assessed using alternative methods e.g. in silico and in vitro methods listed in Levels 1 and 2 of the framework described in the OECD 150 test guideline (OECD [2018]).
(§2) The performance of different in silico models for ED effects tends to be evaluated on single model for a single effect, such as ER or AR binding, agonism or antagonism (normally by the developer), or a limited number of models using multiple chemicals (Weyrich et al. [2022]). Multi-organisation collaborations have also evaluated multiple models for a specific effect e.g. ER (Mansouri et al. [2016]) and AR (Mansouri et al. [2020]) effects. Therefore, we have conducted a side-by-side comparison of multiple different in silico models covering three pathways in ED, namely ER, AR and aromatase inhibition and compared these with ToxCast-derived final calls, as well as with results from in vitro assays. The efficiency of the in silico models was evaluated as a metric for the ability of the in silico model to generate concrete predictions. […] In vivo data were available for some but not all chemicals; therefore, an evaluation of the performance of the methods was made by comparing the derived overall calls from in silico models with those from the ToxCast database. The final call for each chemical evaluated in the ToxCast assays was made by considering the active-flagged assays and the corresponding cytotoxicity levels, the ToxCast Pathway Model (Browne et al. [2015]) and the CERAPP Potency Level (Mansouri et al. [2016]) for ER effects and the ToxCast Pathway Model (Kleinstreuer et al. [2017]) for AR effects (see Online Resource 1 Supplementary Tables 2, 4 and 6 for the outcome of the ER, AR and aromatase ToxCast assays, additional literature and final calls for each chemical and target).

[6] = target: T1, ERα; test: YES (Yeast oestrogen screen) assay, agonist and antagonist mode; settings: YES antagonist assay
Experimental: The YES/YAS XL (Xtra Lyticase) assay kit from Xenometrix AG (Allschwil, Switzerland) was conducted according to the Supplier’s instructions.
In the YES assay, human ERα is integrated in the yeast (Saccharomyces cerevisiae) chromosome, and for the YAS assay human AR is integrated (Routledge and Sumpter 1996; Sohoni and Sumpter 1998). […] This enzyme then converts a yellow substrate to a purple metabolite, which can be measured colorimetrically.
Growing yeast cells stably transformed with either hERα (YES) or hAR (YAS) and a β-galactosidase reporter system were exposed to a range of concentrations of each test compound. […] The positive control chemicals for agonistic effects were 17-β estradiol for YES and 5α-dihydrotestosterone for YAS. […] A combination of a fixed concentration of positive control and a range of concentrations of each test chemical were tested. The cells were incubated with each treatment for 18 h at 31°C. The cells were lysed in the presence of the yellow β-galactosidase-substrate, chlorophenol red-β-D-galactopyranoside (CPRG). Yeast cell growth was assessed prior to addition of the lysis buffer by measuring the absorbance at 690 nm. The production of the red metabolite of CPRG was determined by measuring the absorbance at 570 nm. It was corrected for diffraction by cells and debris by a simultaneous measurement at 690 nm. The results were evaluated for estrogenic and androgenic agonistic and antagonistic activity, as well as for yeast growth inhibition or cytotoxicity.
An IR value ≥ IR10 in the YES or YAS agonist assay indicates an agonistic effect (IR10 is defined as the IR which is 10% of (IR max - IR solvent) above the IR solvent. An IR value ≤ IR50 in the YES or YAS antagonist assay indicates a possible antagonistic effect (IR50 is defined as 50% of (IR control - IR solvent), where the IR control is at the corresponding fixed concentration of agonist used: 3.3 × 10^-10 M 17-β estradiol and 3.3 × 10^-9 M 5α-dihydrotestosterone, respectively). […]

[7] = system: AR; parameters: method as in ToxCast; settings: ref ToxCast, cited from earlier work; for ToxCast 1: (Active assays), number of positive assays / assays run: ToxCast AR assays
[8] = system: ER; parameters: method as in Mansouri et al. 2016; settings: ref Mansouri et al. 2016; cited from earlier work
[9] = system: AR; test: ToxCast AR assays and final ToxCast call; settings: for Final "true" call (ToxCast): AR effects, from active assays, cytotoxicity and pathway model; for ToxCast result: AR overall call from Supplementary Table 4; for Final "true" call (ToxCast) AR: from ToxCast assays and ToxCast Pathway Model
Source text: as §1, §2

[10] = system: H295R cells; test: H295R steroidogenesis assay (oestrogen and androgen production); format: cell-based, human; settings: Homo sapiens, NCI-H295R, 48 h
Experimental: The in vitro H295R Steroidogenesis Assay is based on the human adenocarcinoma cell line, NCI-H295R, in which the human steroidogenesis pathway is fully functional (OECD 2022). The effect of the test chemical on the production of 17β-estradiol and testosterone is measured using ERα CALUX and AR CALUX technology.
The test chemical was tested in two independent assays, each in triplicate.

[11] = system: aromatase; test: ToxCast aromatase assays (TOX21_Aromatase_Inhibition) and final ToxCast call; format: cell-based; settings: for ToxCast result: aromatase overall ToxCast call; for Final "true" call (ToxCast) Aromatase inhibition: from ToxCast assays
Source text: as §2
Aromatase represents only one enzyme involved in steroidogenesis (the conversion of androgens to oestrogens); therefore, the aromatase assay detects effects on 17β-oestradiol production only. […] It is a cell-based assay in which MCF-7 cells are incubated with the test chemical for 24 h before measuring aromatase activities indirectly via a luciferase-based reporter endpoint which is dependent on the binding of the oestradiol–ER complex to the oestrogen response element. A decrease in luciferase activity can occur as a result of direct inhibition of aromatase (preventing the production of oestradiol) or by preventing oestradiol from binding to the ER and thus the binding to the oestrogen RE which initiates the production of luciferase (Lui et al. [2008]).

[12] = system: aromatase; parameters: method as in Lu et al. [2012]; settings: recombinant and placental microsomal preparations; ref Lu et al. [2012]; cited from earlier work
[13] = system: AR; settings: AR pathway model; ref Kleinstreuer et al (2017) 10.1021/acs.chemrestox.6b00347; cited from earlier work
[14] = system: ER; parameters: method as in Browne, et al (2015); settings: ref Browne, et al (2015), cited from earlier work
[15] = read-out: Steroidogenesis Androgenicity LEC
[16] = read-out: Steroidogenesis Estrogenicity LEC

Row | SMILES | ToxCast (Aromatase assays), positive/total [1] | ToxCast 1: (Comments), efficacy [2] | ToxCast 1: (Active assays), ER assay listed as active [2] | ToxCast 1: (Active assays), positive/total ER assays [2] | Final "true" call (ToxCast) ER [5] | ToxCast result (ER) [5] | ToxCast 1: (Active assays), number of positive assays / assays run [7] | CERAPP Potency Level [8] | Final "true" call (ToxCast) [9] | ToxCast result [9] | Final "true" call (ToxCast) AR [9] | minimal effective concentration [10, 15] [µM] | minimal effective concentration [10, 16] [µM] | ToxCast result [11] | Final "true" call (ToxCast) Aromatase inhibition [11] | aromatase inhibitory action [12] | further results
1 | CCN(CC)c1ccc(C(=O)c2ccccc2C(=O)O)c(O)c1 [DEABA, 2-(4-(diethylamino)-2-hydroxybenzoyl)benzoic acid] | 0/2 positive | Boarderline: less than 50% efficacy (28.5%) | TOX21_ERa_LUC_VM7_Agonist | 1/8 positive | Negative | Negative | 1/9 positive | Negative | Negative | Negative | Negative | > 100 | > 100 | Negative | Negative |  | ToxCast conclusion from assays result [2]: Endocrine Disruption Potential.Significant Estrogen Receptor activity seen; ER binding outcome [3]: negative; inhibition of control specific binding to the ER ([3]; single-dose screening, 10 µM): less than -25%; Lowest Effective Concentration (LEC), ER agonism [4]: 56 µM; ER antagonism in the YES assay [6]: inconclusive; ToxCast conclusion from assays result ([7]; AR sheet): Endocrine Disruption Potential.Significant Estrogen Receptor activity seen; efficacy (assays Comments) ([7]; TOX21_AR_BLA_Antagonist_ratio): Boarderline: less than 50% efficacy (38.5%)
2 | CC/C(=C(\c1ccccc1)c1ccc(OCCNC)cc1)c1ccccc1 [N-desmethyl-tamoxifen] |  |  |  |  |  |  |  |  |  |  |  |  |  |  |  | potent inhibitors | 
3 | O=C(O)c1ccc(C(=O)O)cc1 [Terephthalic acid, terephthalic acid] | 0/2 positive | Boarderline: less than 50% efficacy (31.34%) | OT_ER_ERaERb_1440 | 1/18 Positive | Negative | Negative | 0/14 positive | Negative | Negative | Negative | Negative | > 100 | > 100 | Negative | Negative |  | ToxCast Pathway Model (AUC) [13]: AUC = 0, then there is no significant interaction.; ToxCast Pathway Model (AUC) ([14]; as agonist where given, value above 0.1 = significant interaction): 0; ToxCast Pathway Model interaction [14]: NO significant interaction
4 | CC/C(=C(\c1ccc(O)cc1)c1ccc(OCCNC)cc1)c1ccccc1 [endoxifen] |  |  |  |  |  |  |  |  |  |  |  |  |  |  |  | potent inhibitors | 
